Patent US20190105367A1, “ANTIMICROBIAL 4-OXOQUINOLIZINES” (Emergent Product Development Gaithersburg Inc., priority 2011, published 2019)
≈ marks a conversion by molar mass, not a printed value. Read-outs that look alike come from different tables or passages of the source.

Key:
A. baumannii A329 = assay: Preliminary MBC without and with sub-inhibitory polymyxin B (Example 4); assay type: cell-based, Acinetobacter baumannii; conditions: Acinetobacter baumannii, A329, A. baumannii A329, +0.06 μg/ml PB, 2nd experiment, read-out: MBC
[1] = tested on: Acinetobacter sp. (H064200250); assay: MIC without and with sub-inhibitory polymyxin B (Example 4); assay type: cell-based
A. baumannii A14 [2] = assay: Preliminary MBC without and with sub-inhibitory polymyxin B (Example 4); assay type: cell-based, Acinetobacter baumannii; conditions: A. baumannii A14; +0.06 μg/ml polymyxin B; preliminary MBC; 1st experiment
A. baumannii A472 [3] = assay: MIC without and with sub-inhibitory polymyxin B (Example 4); assay type: cell-based, Acinetobacter baumannii; conditions: for MIC: Acinetobacter baumannii
A. baumannii A14 [4] = assay: as above; assay type: cell-based, Acinetobacter baumannii; conditions: A. baumannii A14; +0.06 μg/ml PB; 2nd experiment
A. baumannii A489 = assay: as above; assay type: cell-based, Acinetobacter baumannii; conditions: for MIC without PB/MIC + PB: A. baumannii A489; for MIC: Acinetobacter baumannii
A. baumannii A387 [5] = assay: as above; assay type: cell-based, Acinetobacter baumannii; conditions: A. baumannii A387
A. baumannii ATCC 19606 = assay: as above; assay type: cell-based, Acinetobacter baumannii; conditions: A. baumannii ATCC 19606
A. baumannii A401 [6] = assay: as above; assay type: cell-based, Acinetobacter baumannii; conditions: A baumannii A 401; ratio, PB 0.06 μg/ml; 1st experiment
A. baumannii A390 = assay: as above; assay type: cell-based, Acinetobacter baumannii; conditions: A. baumannii A390; +0.06 μg/ml PB; 2nd experiment
A. baumannii J2 = assay: as above; assay type: cell-based, Acinetobacter baumannii; conditions: for MIC without PB/MIC + PB: A. baumannii J2; for MIC: Acinetobacter baumannii
A. baumannii NCTC 13301 [7] = assay: as above; assay type: cell-based, Acinetobacter baumannii
A. baumannii A14 [8] = assay: Preliminary MBC without and with sub-inhibitory polymyxin B (Example 4); assay type: cell-based, Acinetobacter baumannii; conditions: A. baumannii A14, +0.06 μg/ml PB, 2nd experiment
Protocol: (§1) The plates were incubated for 18-20 hours at 37° C. The MBC was read as the lowest concentration at which colony growth was ca. 90% less than the positive control (i.e. usually where single colonies or no colonies were observed).

A. baumannii NCTC 13301 [9] = assay: as above; assay type: cell-based, Acinetobacter baumannii; conditions: Acinetobacter baumannii, NCTC13301, A. baumannii NCTC 13301; +[…] PB; preliminary MBC; 2nd experiment; read-out: MBC
Protocol: as §1

[10] = tested on: strains of A. baumannii and one strain of Acinetobacter sp.; assay: MIC with sub-inhibitory concentrations (0.25x MIC) of polymyxin B, panel of Acinetobacter strains (Example 4); assay type: cell-based
A. baumannii A401 [11] = assay: Preliminary MBC without and with sub-inhibitory polymyxin B (Example 4); assay type: cell-based, Acinetobacter baumannii; conditions: Acinetobacter baumannii, A401, A baumannii A 401, +0.06 μg/ml PB, 2nd experiment, read-out: MBC
A. baumannii A387 [12] = assay: as above; assay type: cell-based, Acinetobacter baumannii; conditions: Acinetobacter baumannii, A387, A. baumannii A387, +0.06 μg/ml PB, 2nd experiment, read-out: MBC
A. baumannii NCTC 13301 [13] = assay: MIC without and with sub-inhibitory polymyxin B (Example 4); assay type: cell-based, Acinetobacter baumannii; conditions: +[…] PB, 2nd experiment
A. baumannii A473 = assay: as above; assay type: cell-based, Acinetobacter baumannii; conditions: A. baumannii A473; +0.06 μg/ml PB; 2nd experiment
A. baumannii A14 [14] = assay: as above; assay type: cell-based, Acinetobacter baumannii; conditions: 1st experiment
A. baumannii A472 [15] = assay: Preliminary MBC without and with sub-inhibitory polymyxin B (Example 4); assay type: cell-based, Acinetobacter baumannii; conditions: Acinetobacter baumannii, A472, A. baumannii A472; +[…] PB; preliminary MBC; 2nd experiment; read-out: MBC
[16] = ratio, PB 0.06 μg/ml, 1st experiment

SMILES: C[C@H]1COc2c(N3CCN(C)CC3)c(F)cc3c(=O)c(C(=O)O)cn1c23 [Levofloxacin, reference compound]
- MBC (A. baumannii A329): 16 µg/mL (≈ 44.3 µM)
- MIC without PB/MIC + PB ([1]; Acinetobacter spp. H064200250 (OXA51), +[…] PB, 2nd experiment): 2
- MIC without PB/MIC + PB ([1]; Acinetobacter spp. H064200250, ratio, PB […], 1st experiment): 1
- MIC ([1]; Acinetobacter, Acinetobacter spp. H064200250 (OXA51), +[…] PB, 2nd experiment, read-out: MIC): 8 µg/mL (≈ 22.1 µM)
- MBC +0.06 μg/ml PB (A. baumannii A14 [2]): 32 µg/mL
- MIC without PB/MIC + PB (A. baumannii A472 [3]; A. baumannii A472, ratio, PB […], 1st experiment): 4
- MIC (A. baumannii A472 [3]; A472, A. baumannii A472, +[…] PB, 2nd experiment, read-out: MIC): 4 µg/mL (≈ 11.1 µM)
- MIC (A. baumannii A472 [3]; A472, read-out: MIC +[…] PB, A. baumannii A472, +[…] polymyxin B, 1st experiment): 4 µg/mL (≈ 11.1 µM)
- MIC (A. baumannii A14 [4]): 16.00 µg/mL (≈ 44.3 µM)
- MIC without PB/MIC + PB (A. baumannii A14 [4]): 2
- MIC without PB/MIC + PB (A. baumannii A489; +[…] PB, 2nd experiment): 4
- MIC without PB/MIC + PB (A. baumannii A489; ratio, PB […], 1st experiment): 2
- MIC (A. baumannii A489; A489, A. baumannii A489, +[…] PB, 2nd experiment, read-out: MIC): 8 µg/mL (≈ 22.1 µM)
- MIC (A. baumannii A489; A489, read-out: MIC +[…] PB, A. baumannii A489, +[…] polymyxin B, 1st experiment): 8 µg/mL (≈ 22.1 µM)
- MIC without PB/MIC + PB (A. baumannii A387 [5]; +0.06 μg/ml PB, 2nd experiment): 1
- MIC without PB/MIC + PB (A. baumannii A387 [5]; [16]): 1
- MIC without PB/MIC + PB (A. baumannii ATCC 19606; +0.06 μg/ml PB, 2nd experiment): 1
- MIC without PB/MIC + PB (A. baumannii ATCC 19606; [16]): 1
- MIC without PB/MIC + PB (A. baumannii A401 [6]): 1
- MIC without PB/MIC + PB (A. baumannii A390): 2
- MIC without PB/MIC + PB (A. baumannii J2; +[…] PB, 2nd experiment): 8
- MIC without PB/MIC + PB (A. baumannii J2; ratio, PB […], 1st experiment): 4
- MIC (A. baumannii J2; J2, A. baumannii J2, +[…] PB, 2nd experiment, read-out: MIC): 4 µg/mL (≈ 11.1 µM)
- MIC (A. baumannii J2; J2, read-out: MIC +[…] PB, A. baumannii J2, +[…] polymyxin B, 1st experiment): 8 µg/mL (≈ 22.1 µM)
- MIC without PB/MIC + PB (A. baumannii NCTC 13301 [7]; A. baumannii NCTC 13301, ratio, PB […], 1st experiment): 2
- MIC (A. baumannii NCTC 13301 [7]; Acinetobacter baumannii, NCTC13301, read-out: MIC +[…] PB): 16 µg/mL (≈ 44.3 µM)
- MBC (A. baumannii A14 [8]): 16.00 µg/mL (≈ 44.3 µM)
- MBC (A. baumannii NCTC 13301 [9]): 4 µg/mL (≈ 11.1 µM)
- Range ratios MIC without PB/MIC with PB Oct. 1, 2008 n = 8 ([10]; 1st experiment): 1-4
- MIC range with PB (0.25x MIC) Oct. 1, 2008 n = 8 ([10]; 1st experiment, […] polymyxin B, ATCC 19606, A329, A390 and A473 not taken): 4 to 32 µg/mL
- Range ratios MIC without PB/MIC with PB Oct. 14, 2008 n = 11 ([10]; 2nd experiment): 0.5-8
- MIC range with PB (0.25x MIC) Oct. 14, 2008 n = 11 ([10]; 2nd experiment, 0.06 μg/ml polymyxin B, all strains except the ATCC strain): 4 to 32 µg/mL
- MBC (A. baumannii A401 [11]): 8 µg/mL (≈ 22.1 µM)
- MBC (A. baumannii A387 [12]): 4 µg/mL (≈ 11.1 µM)
- MIC without PB/MIC + PB (A. baumannii NCTC 13301 [13]; A. baumannii NCTC 13301): 4
- MIC (A. baumannii NCTC 13301 [13]; Acinetobacter baumannii, NCTC13301, A. baumannii NCTC 13301, read-out: MIC): 8 µg/mL (≈ 22.1 µM)
- MIC without PB/MIC + PB (A. baumannii A473): 1
- MIC +0.06 μg/ml PB (A. baumannii A14 [14]; +0.06 μg/ml polymyxin B): 32 µg/mL
- MIC without PB/MIC + PB (A. baumannii A14 [14]; ratio, PB 0.06 μg/ml): 1
- MBC (A. baumannii A472 [15]): 4 µg/mL (≈ 11.1 µM)
